Measurements reported in article PMC12281424, “A Rac-specific competitive inhibitor of guanine nucleotide binding reduces metastasis in triple-negative breast cancer” (Cell Reports Medicine, 2025).

Assays:
[1] = test system: NIH/3T3 cell migration; test: 1D cell migration (CYTOO plates); assay type: cell-based; conditions: 10^-5 M
Method: NIH3T3cells (1000/well) were seeded in a 96 well plate with […] fibronectin stripes (CytooPlates Motility, CYTOO) in medium with 1% SVF and allowed to spread for 4 h before capturing time-lapse images for 24 h (image/10 min) on a Widefield Leica DMI 6000B drove with Metamorph software. Cells speed was measured with ImageJ software.
Supplementary Fig. 3: Example of one pharmacophore model used for virtual screening. (a) The pharmacophore model shown was created based on RAC1 (grey) and NSC23766 (orange) interaction. The pharmacophore model is formed by two hydrogenbond acceptor(HBA)features,one orientedtowardsthe hydroxylgroup of Ser71 (S71) and the other towards the amine group of Gln74 (Q74), one hydrogen bond donor (HBD) feature pointed to the oxygenatom of Leu70 (L70) and two hydrophobic features (HY) located on certain carbon atoms of NSC23766 and facing residues Val36 (V36), Ala59 (A59), Tyr64 (Y64) and Leu67 (L67). The spheres correspond to locationconstraint. […] (b) Impact of different screening molecules (10^-5 M) on NIH/3T3 cell adhesion (xCELLingence Real-time cellanalysis, Agilent), migration (CYTOO Mobility plates) and proliferation (xCELLingence Real-time cell analysis, Agilent) .The level of RAC activation is determinedby the detection of RAC-GTP (pull-down assay) in NIH/3T3 cell treated with EGF (10 ng/mL) and the differentmolecules and normalize to the level of RAC activity measuredin the presenceof the reference RAC inhibitor EHT1864.
Supplementary Fig. 4: A41 inhibits RAC-dependent cell functions. (a) Representative records of single NIH/3T3 cell migration on micropatterned fibronectin lines (CYTOO Mobility plates) in the absence (Control)and presenceA41 at 10^-5 M (left panel) and corresponding quantification of migration speed (right panel) (scale bar: 20µm). […] (b) Typical curves showing the cell index representing the adhesion of NIH/3T3 fibroblast (xCELLingence Real-time cell analysis, Agilent) under control condition (Control) and pre-treated with 10 µM A41 or NSC23766 (left panel) and corresponding quantification of cell adhesion speed (right panel). […]

[2] = biological target: Aurora-C(h) (Homo sapiens, UniProt Q9UQB9); test: Kinase Profiler; assay type: biochemical
Method: (§1) Blood cell counts, kinase profiler, safety screen, bacterial cytotoxicity, Ames, micronucleus assays were performed by the company Eurofins (France). The kinase profiler was performed by the company Eurofins (Discovery, Panlab and Cerep).

[3] = biological target: ASK1(h) (Homo sapiens, UniProt Q99683); test: Kinase Profiler; assay type: biochemical
Method: as §1

[4] = biological target: BrSK1(h) (Homo sapiens, UniProt Q8TDC3); test: Kinase Profiler; assay type: biochemical
Method: as §1

[5] = biological target: HIPK3(h) (Homo sapiens, UniProt Q9H422); test: Kinase Profiler; assay type: biochemical
Method: (§2) The kinase profiler was performed by the company Eurofins (Discovery, Panlab and Cerep).

[6] = biological target: PKCθ(h) (Homo sapiens, UniProt Q04759); test: Kinase Profiler; assay type: biochemical
Method: as §2

[7] = biological target: PTK5(h) (Homo sapiens, UniProt P42685); test: Kinase Profiler; assay type: biochemical
Method: as §2

[8] = biological target: SGK(h) (Homo sapiens, UniProt O00141); test: Kinase Profiler; assay type: biochemical
Method: as §2

[9] = biological target: STK25(h) (Homo sapiens, UniProt O00506); test: Kinase Profiler; assay type: biochemical
Method: as §2

[10] = biological target: Pim-1(h) (Homo sapiens, UniProt P11309); test: Kinase Profiler; assay type: biochemical
Method: as §1

[11] = biological target: Fes(h) (Homo sapiens, UniProt P07332); test: Kinase Profiler; assay type: biochemical
Method: as §2

[12] = biological target: PEK(h) (Homo sapiens, UniProt Q9NZJ5); test: Kinase Profiler; assay type: biochemical
Method: as §2

[13] = test system: breast CAF spheroids; test: 3D invasion assay; assay type: cell-based, human; conditions: 10^-5 M
Method: Figure 5 A41 decreases growth and invasiveness of TNBC cells in vitro (A) Representative images of RAC-GTP levels (red) in MDA-MB-468 Luc cells in the absence (CTL) and presence of EHT1864, NSC23766, or A41 (1 h at 10 μM) (left). Luciferase (Luc, green) was used to detect the cells. RAC-GTP mean fluorescence intensity was quantified inside the cell area (right) (n = 31–37 cells from 3 independent experiments; ∗p < 0.05, ∗∗∗p < 0.001) (scale bars: 10 μm). […] (C) Quantification of colony number of indicated cancer cell lines in the presence of A41 (10 μM) expressed as the percentage of control in the absence of A41. Results shown are representative of N > 3 independent experiments. (D) Immunoblot analysis and corresponding quantification of AKT and P44/42 expression and phosphorylation (pAKT, p44/42) in MDA-MB-468 Luc cells in the absence (−) and presence of NSC23766 or A41 (1 h at 10^−5 M). […] (E) 3D invasion assay of MDA-MB-468 Luc and cancer-associated fibroblasts (CAFs) and corresponding quantification (scale bars: 200 μm). […]
3D-spheroids were obtained, according the protocol previously described,[62] by re-suspending cells at a concentration of 1.25 × 10^4 cells/ml in 20% Methyl-cellulose/80% DMEM 10% FBS. […] Invasion was monitored by fully automated Dmi6000b Wide Field Fluorescence Microscope (Leica Microsystems, Wetzlar, Germany) during 48h.

[14] = biological target: MKK6(h) (Homo sapiens, UniProt P52564); test: Kinase Profiler; assay type: biochemical
Method: as §2

[15] = biological target: PRAK(h) (Homo sapiens, UniProt Q8IW41); test: Kinase Profiler; assay type: biochemical
Method: as §1

Chain of SGK(h) (O00141 whole entry): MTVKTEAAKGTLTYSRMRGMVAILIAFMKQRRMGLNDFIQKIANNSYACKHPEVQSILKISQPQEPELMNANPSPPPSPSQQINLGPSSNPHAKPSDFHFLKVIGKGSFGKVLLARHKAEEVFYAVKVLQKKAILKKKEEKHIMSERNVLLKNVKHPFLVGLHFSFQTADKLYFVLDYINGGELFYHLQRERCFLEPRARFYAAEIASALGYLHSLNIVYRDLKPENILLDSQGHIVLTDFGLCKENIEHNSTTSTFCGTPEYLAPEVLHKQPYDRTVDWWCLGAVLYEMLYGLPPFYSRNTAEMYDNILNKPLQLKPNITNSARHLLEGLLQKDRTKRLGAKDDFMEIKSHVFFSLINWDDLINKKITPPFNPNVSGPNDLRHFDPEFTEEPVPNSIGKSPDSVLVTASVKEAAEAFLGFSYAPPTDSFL
Chain of PEK(h) (Q9NZJ5 30-1116): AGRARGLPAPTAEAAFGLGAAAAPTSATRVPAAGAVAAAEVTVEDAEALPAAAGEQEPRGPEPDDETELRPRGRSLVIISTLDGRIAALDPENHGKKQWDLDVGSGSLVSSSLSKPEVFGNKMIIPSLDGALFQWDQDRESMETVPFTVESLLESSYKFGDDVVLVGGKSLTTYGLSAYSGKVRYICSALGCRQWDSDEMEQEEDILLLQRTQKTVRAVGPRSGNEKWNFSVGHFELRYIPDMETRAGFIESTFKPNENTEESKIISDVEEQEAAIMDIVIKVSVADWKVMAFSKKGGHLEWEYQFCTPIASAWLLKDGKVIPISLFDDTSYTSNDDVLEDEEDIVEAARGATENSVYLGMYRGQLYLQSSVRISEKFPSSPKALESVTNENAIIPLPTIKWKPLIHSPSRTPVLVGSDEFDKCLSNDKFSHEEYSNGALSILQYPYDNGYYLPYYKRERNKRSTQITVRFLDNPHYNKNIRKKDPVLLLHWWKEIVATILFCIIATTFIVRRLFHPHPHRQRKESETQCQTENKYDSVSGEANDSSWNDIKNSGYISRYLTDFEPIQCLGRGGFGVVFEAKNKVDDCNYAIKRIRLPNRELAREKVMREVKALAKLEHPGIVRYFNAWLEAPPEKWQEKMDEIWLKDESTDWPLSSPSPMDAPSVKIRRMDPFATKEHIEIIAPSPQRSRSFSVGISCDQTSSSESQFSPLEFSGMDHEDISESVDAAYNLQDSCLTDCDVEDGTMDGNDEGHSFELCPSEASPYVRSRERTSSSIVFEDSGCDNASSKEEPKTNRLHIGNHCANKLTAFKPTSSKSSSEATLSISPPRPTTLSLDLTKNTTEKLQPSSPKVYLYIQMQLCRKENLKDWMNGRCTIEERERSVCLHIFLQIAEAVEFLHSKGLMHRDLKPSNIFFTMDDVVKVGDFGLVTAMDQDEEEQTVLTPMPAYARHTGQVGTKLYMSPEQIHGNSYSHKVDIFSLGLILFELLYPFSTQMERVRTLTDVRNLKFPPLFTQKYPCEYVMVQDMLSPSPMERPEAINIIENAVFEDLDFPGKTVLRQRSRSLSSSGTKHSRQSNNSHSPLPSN
Chain of ASK1(h) (Q99683 whole entry): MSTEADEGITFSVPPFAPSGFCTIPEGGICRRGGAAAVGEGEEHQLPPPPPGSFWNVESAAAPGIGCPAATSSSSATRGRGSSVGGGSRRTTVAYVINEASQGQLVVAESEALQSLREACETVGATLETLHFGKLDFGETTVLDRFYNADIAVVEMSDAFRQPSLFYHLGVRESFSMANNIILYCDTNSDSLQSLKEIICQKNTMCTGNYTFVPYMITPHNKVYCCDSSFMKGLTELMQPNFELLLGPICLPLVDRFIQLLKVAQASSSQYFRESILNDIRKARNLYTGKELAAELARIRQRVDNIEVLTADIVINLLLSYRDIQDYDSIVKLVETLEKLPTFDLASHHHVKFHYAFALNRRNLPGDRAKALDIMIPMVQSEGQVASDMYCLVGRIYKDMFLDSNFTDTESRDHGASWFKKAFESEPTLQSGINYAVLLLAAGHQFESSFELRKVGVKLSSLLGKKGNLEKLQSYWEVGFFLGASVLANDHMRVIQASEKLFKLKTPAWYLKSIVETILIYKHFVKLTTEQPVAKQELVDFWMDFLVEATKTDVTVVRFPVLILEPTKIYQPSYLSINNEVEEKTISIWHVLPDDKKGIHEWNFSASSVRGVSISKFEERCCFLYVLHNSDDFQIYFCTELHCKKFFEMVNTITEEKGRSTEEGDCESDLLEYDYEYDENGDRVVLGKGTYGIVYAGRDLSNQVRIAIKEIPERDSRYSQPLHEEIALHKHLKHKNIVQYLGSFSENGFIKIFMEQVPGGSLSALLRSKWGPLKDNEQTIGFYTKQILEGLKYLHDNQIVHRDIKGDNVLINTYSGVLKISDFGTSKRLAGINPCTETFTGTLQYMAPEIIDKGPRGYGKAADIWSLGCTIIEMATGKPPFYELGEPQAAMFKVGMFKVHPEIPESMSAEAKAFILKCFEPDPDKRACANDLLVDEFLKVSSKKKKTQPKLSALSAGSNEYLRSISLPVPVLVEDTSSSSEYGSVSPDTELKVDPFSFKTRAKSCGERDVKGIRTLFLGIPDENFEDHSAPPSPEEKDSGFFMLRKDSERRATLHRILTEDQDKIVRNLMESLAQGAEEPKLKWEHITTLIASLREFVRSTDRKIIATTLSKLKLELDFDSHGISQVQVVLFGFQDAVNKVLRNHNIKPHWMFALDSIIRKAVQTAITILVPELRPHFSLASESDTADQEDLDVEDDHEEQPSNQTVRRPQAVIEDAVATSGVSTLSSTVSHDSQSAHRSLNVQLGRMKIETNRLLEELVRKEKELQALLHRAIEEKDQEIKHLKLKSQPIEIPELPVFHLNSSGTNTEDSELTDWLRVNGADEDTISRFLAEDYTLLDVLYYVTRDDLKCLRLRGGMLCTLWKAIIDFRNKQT
Chain of PTK5(h) (P42685 whole entry): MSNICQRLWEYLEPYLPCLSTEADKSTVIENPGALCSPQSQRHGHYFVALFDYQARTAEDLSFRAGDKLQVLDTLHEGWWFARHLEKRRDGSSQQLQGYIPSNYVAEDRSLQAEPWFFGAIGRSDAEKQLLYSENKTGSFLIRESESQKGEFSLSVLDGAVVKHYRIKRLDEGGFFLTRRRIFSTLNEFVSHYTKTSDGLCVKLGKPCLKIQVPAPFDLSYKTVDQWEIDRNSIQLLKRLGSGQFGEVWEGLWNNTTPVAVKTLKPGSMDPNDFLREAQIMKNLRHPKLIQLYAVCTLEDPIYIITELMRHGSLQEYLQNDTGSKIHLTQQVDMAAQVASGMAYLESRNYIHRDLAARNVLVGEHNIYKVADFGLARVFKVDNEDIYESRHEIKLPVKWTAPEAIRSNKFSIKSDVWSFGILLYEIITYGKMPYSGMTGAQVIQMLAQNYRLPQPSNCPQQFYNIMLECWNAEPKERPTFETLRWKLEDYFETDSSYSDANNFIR
Chain of Aurora-C(h) (Q9UQB9 whole entry): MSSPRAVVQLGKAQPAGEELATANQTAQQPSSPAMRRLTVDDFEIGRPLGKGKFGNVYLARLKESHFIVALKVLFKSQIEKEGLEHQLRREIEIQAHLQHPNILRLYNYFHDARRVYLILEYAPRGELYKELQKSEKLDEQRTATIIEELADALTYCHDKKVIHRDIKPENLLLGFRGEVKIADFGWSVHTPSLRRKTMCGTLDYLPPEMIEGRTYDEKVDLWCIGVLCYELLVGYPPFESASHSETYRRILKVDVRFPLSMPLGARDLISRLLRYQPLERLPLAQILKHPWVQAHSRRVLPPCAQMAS
Chain of HIPK3(h) (Q9H422 whole entry): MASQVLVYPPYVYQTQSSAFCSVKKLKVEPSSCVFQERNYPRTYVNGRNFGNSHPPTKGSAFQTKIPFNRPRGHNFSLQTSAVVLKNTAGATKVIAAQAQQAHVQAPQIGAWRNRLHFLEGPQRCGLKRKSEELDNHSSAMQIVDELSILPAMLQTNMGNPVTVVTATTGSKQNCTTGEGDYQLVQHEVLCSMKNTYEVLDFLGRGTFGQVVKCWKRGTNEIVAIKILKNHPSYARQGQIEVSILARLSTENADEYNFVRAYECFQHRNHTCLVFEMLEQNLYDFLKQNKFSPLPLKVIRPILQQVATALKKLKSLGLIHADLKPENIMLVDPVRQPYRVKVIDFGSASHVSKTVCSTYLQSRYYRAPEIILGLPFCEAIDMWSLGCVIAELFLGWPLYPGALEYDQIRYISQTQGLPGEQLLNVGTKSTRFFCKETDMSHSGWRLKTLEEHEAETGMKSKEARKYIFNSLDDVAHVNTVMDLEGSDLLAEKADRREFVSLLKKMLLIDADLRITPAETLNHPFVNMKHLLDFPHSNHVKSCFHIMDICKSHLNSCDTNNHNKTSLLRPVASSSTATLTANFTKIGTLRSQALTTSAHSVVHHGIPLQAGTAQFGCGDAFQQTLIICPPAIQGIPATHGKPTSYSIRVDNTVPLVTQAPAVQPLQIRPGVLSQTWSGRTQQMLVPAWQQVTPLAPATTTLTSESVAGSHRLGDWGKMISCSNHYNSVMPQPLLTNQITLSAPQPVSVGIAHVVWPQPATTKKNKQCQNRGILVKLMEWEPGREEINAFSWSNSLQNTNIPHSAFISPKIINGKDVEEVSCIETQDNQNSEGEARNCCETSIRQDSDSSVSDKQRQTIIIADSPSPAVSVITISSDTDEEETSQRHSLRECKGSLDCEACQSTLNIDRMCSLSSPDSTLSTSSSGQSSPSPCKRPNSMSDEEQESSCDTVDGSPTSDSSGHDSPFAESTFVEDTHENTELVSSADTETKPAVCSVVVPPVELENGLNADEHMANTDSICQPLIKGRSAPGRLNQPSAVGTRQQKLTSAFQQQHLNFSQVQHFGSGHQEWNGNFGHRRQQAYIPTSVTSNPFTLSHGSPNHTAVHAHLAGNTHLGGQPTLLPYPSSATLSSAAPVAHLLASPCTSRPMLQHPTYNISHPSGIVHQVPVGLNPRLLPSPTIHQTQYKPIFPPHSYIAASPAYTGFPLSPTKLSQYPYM

With `COc1ccc(OC)c(NS(=O)(=O)c2ccc(NC(=O)CCSc3ccc(C)cc3)cc2)c1` [Compound A41] the cell migration [1] was “efficiently inhibited both functions”, the “Activity(%)” value [2] was 100% and the “Activity(%)” value [3] was 94%. The “Activity(%)” value [4] was 86%, the “Activity(%)” value [5] was 95% and the “Activity(%)” value [6] was 114%. The “Activity(%)” value [7] was 113%, the “Activity(%)” value [8] was 116% and the “Activity(%)” value [9] was 98%. For the same compound, the “Activity(%)” value [10] was 95%, the “Activity(%)” value [11] was 116% and the “Activity(%)” value [12] was 102%. The “invasion of CAF spheroids” value [13] was “anti-invasion property”, the “Activity(%)” value [14] was 90% and the “Activity(%)” value [15] was 88%.
